What was measured:
Progesterone receptor = biological target: T1, Progesterone receptor (Homo sapiens, UniProt P06401); assay: Displacement of TAMRA-labeled mifepristone from progesterone receptor (unknown origin) by fluorescence polarization assay
T1 sequence (P06401 whole entry): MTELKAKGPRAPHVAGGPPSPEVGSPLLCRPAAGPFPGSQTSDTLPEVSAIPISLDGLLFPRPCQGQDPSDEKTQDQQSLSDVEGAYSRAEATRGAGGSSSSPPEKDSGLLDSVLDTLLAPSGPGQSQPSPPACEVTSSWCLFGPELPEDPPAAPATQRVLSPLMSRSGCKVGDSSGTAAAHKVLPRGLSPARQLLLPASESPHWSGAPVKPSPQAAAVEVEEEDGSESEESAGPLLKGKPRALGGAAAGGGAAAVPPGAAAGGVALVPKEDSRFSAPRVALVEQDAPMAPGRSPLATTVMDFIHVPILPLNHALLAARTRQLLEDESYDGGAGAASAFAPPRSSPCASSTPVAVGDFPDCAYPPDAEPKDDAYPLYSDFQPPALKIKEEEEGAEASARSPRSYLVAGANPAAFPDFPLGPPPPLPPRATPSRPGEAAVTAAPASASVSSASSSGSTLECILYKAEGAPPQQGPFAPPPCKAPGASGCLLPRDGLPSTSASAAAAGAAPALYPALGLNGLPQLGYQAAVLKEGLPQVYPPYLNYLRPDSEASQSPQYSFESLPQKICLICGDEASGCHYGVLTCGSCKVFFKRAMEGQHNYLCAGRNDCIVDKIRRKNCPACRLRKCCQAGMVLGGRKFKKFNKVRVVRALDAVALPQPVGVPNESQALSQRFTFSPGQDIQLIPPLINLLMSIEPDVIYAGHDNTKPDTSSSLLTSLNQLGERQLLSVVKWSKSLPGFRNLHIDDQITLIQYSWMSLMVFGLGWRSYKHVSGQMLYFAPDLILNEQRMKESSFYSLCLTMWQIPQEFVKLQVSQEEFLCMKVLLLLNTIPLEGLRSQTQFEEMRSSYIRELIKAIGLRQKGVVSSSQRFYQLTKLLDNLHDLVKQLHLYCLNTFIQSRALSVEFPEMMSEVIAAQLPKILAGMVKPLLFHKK

[1] = biological target: T2, Mineralocorticoid receptor (Homo sapiens, UniProt P08235); assay: Displacement of TAMRA-labeled dexamethasone from mineralocorticoid receptor (unknown origin) by fluorescence polarization assay
T2 sequence (P08235 whole entry): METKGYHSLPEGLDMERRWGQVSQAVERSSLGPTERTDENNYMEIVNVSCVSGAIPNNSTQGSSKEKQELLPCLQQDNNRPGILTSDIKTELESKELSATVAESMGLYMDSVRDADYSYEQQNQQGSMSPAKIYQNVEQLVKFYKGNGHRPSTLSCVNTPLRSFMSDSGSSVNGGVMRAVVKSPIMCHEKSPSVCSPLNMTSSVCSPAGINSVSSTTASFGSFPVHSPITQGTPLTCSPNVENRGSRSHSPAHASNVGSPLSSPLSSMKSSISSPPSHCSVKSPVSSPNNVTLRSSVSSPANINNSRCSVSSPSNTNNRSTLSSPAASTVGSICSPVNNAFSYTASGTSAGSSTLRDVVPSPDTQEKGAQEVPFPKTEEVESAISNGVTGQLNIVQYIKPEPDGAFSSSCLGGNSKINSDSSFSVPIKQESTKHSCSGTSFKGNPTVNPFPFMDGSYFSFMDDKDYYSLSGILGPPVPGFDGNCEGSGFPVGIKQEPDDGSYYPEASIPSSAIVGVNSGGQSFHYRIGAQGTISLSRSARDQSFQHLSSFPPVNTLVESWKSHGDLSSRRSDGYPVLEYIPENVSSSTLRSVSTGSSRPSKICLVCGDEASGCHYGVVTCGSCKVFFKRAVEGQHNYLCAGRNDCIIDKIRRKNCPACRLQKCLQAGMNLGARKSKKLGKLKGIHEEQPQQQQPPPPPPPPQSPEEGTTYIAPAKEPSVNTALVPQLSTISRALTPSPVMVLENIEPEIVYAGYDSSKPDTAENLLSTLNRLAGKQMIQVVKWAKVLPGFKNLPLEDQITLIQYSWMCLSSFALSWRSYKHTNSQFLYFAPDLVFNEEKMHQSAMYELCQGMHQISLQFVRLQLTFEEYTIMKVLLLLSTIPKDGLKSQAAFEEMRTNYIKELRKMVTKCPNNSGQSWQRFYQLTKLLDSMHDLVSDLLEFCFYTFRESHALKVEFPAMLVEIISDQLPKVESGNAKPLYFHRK

Glucocorticoid receptor [2] = biological target: T3, Glucocorticoid receptor (Homo sapiens, UniProt P04150)
T3 sequence (P04150 whole entry): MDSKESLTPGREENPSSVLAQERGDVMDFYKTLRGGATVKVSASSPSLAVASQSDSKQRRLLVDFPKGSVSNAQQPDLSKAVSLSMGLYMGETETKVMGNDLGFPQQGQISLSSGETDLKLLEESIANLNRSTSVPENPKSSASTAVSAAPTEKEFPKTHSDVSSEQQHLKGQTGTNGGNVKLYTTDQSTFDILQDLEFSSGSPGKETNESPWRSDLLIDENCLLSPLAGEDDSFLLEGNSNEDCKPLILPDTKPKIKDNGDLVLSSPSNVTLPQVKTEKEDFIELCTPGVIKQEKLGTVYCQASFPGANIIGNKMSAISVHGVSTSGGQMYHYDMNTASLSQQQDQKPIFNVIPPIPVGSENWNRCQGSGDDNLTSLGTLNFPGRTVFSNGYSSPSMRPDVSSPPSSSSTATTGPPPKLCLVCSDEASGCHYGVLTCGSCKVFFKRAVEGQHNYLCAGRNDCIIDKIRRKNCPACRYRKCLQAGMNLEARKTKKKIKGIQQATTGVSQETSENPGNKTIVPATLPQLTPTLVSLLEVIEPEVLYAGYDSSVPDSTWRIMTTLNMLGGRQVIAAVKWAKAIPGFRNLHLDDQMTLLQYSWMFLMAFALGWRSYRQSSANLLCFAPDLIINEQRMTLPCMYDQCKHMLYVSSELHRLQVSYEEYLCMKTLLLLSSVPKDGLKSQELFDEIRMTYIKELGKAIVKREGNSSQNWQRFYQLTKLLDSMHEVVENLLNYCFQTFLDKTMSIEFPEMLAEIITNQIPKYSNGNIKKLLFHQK

Glucocorticoid receptor [3] = biological target: T3, Glucocorticoid receptor; remark: listed apart in the source
Description: Agonist activity at glucocorticoid receptor in human foreskin fibroblasts assessed as inhibition of IL-1-induced IL-6 production by trans-repression assay

Homo sapiens [4] = organism: Homo sapiens; assay: Selectivity ratio of IC50 for progesterone receptor (unknown origin) to IC50 for glucocorticoid receptor (unknown origin)
Homo sapiens [5] = organism: Homo sapiens; assay: Selectivity ratio of IC50 for mineralocorticoid receptor (unknown origin) to IC50 for glucocorticoid receptor (unknown origin)
Glucocorticoid receptor [6] = biological target: T3, Glucocorticoid receptor; assay: Transactivation of glucocorticoid receptor in human HeLa cells harboring MMTV promoter at 2 uM by luciferase reporter gene assay relative to dexamethasone; format: cell-based; conditions: read-out: Efficacy
[7] = Chemical stability of the compound in aqueous solution at pH 2; format: physicochemical; conditions: buffer
Glucocorticoid receptor [8] = biological target: T3, Glucocorticoid receptor; remark: listed apart in the source
Description: Transactivation of glucocorticoid receptor in human HeLa cells harboring MMTV promoter by luciferase reporter gene assay

[9] = Chemical stability of the compound in aqueous solution at pH 2 to 7.4 after 24 hrs; format: physicochemical; conditions: buffer, pH 2, 24 h
Mus musculus [10] = assay: Antiarthritic activity in B10.RIII mouse collagen/complete Freund's adjuvant-induced arthritis model assessed as reduction of disease score at 30 mg/kg, po qd for 5 weeks relative to control; format: functional; set-up: scale not given: the % may be the effect or the level left
Mus musculus [11] = assay: Antiinflammatory activity in mouse assessed as inhibition of LPS-induced TNFalpha production at 3 mg/kg, po; format: functional
Mus musculus [12] = assay: Antiarthritic activity in B10.RIII mouse collagen/complete Freund's adjuvant-induced arthritis model assessed as reduction of disease score at 3 mg/kg, po qd for 5 weeks relative to control; format: functional; set-up: scale not given: the % may be the effect or the level left
Mus musculus [13] = assay: Toxicity in B10.RIII mouse assessed as body fate level in serum at 30 mg/kg, po qd for 5 weeks relative to control; format: organism-based; set-up: dose 30 mg/kg, route oral; conditions: in vivo, 840 h
Mus musculus [14] = assay: Toxicity in B10.RIII mouse assessed as body fate level in serum at 3 mg/kg, po qd for 5 weeks relative to control; format: organism-based; set-up: dose 3 mg/kg, route oral; conditions: in vivo, 840 h
Mus musculus [15] = assay: Toxicity in B10.RIII mouse assessed as triglyceride level in serum at 30 mg/kg, po qd for 5 weeks relative to control; format: organism-based; set-up: dose 30 mg/kg, route oral; conditions: in vivo, 840 h
Mus musculus [16] = assay: Toxicity in B10.RIII mouse assessed as triglyceride level in serum at 3 mg/kg, po qd for 5 weeks relative to control; format: organism-based; set-up: dose 3 mg/kg, route oral; conditions: in vivo, 840 h
Mus musculus [17] = assay: Toxicity in B10.RIII mouse assessed as free fatty acid level in serum at 30 mg/kg, po qd for 5 weeks relative to control; format: organism-based; set-up: dose 30 mg/kg, route oral; conditions: in vivo, 840 h
Mus musculus [18] = assay: Toxicity in B10.RIII mouse assessed as free fatty acid level in serum at 3 mg/kg, po qd for 5 weeks relative to control; format: organism-based; set-up: dose 3 mg/kg, route oral; conditions: in vivo, 840 h
Mus musculus [19] = assay: Toxicity in B10.RIII mouse assessed as insulin level in serum at 30 mg/kg, po qd for 5 weeks relative to control; format: organism-based; set-up: dose 30 mg/kg, route oral; conditions: in vivo, 840 h
Mus musculus [20] = assay: Toxicity in B10.RIII mouse assessed as insulin level in serum at 3 mg/kg, po qd for 5 weeks relative to control; format: organism-based; set-up: dose 3 mg/kg, route oral; conditions: in vivo, 840 h

IC50 (Progesterone receptor) [nM]	IC50 [1] [nM]	IC50 (Glucocorticoid receptor [2]) [nM]	IC50 (Glucocorticoid receptor [3]) [nM]	Structure (SMILES)	other results
> 2000	> 2000	51	220	CCC(O)(Cc1cc2ccncc2[nH]1)CC(C)(C)c1cc(F)ccc1OC (centres undefined)	
> 2000	1900	13	> 2000	CCC(C)(C)C(O)(Cc1cc2ccncc2[nH]1)CC(C)(C)c1cc(F)ccc1OC (centres undefined)	Ratio IC50 (Homo sapiens [4]): > 100; Ratio IC50 (Homo sapiens [5]): > 100
> 2000	> 2000	230	> 2000	COc1ccc(F)cc1C(C)(C)CC(C)(O)Cc1cc2ccncc2[nH]1 (centres undefined)	
1800	1800	8	36	COc1ccc(F)cc1C(C)(C)CC(O)(Cc1cc2ccncc2[nH]1)C(C)(C)C (centres undefined)	Ratio IC50 (Homo sapiens [4]): > 100; Ratio IC50 (Homo sapiens [5]): > 100
> 2000		4	10	COc1ccc(F)cc1C(C)(C)CC(O)(Cc1cc2ccncc2[nH]1)C(F)(F)F (centres undefined)	
> 2000	1000	9	73	COc1ccc(F)cc1C(C)(C)CC(O)(Cc1cc2ccncc2[nH]1)C(C)C (centres undefined)	Ratio IC50 (Homo sapiens [4]): > 100; Ratio IC50 (Homo sapiens [5]): > 100
> 2000	1550	9	24	Cc1ccc(F)cc1C(C)(C)CC(O)(Cc1cc2cnccc2[nH]1)C1CC1 (centres undefined)	Emax at 2 µM (Glucocorticoid receptor [6]): 11%; Stability [7]: Unstable; EC50 (Glucocorticoid receptor [8]): > 2000 nM
790	640	4	9	COc1ccc(F)cc1C(C)(C)CC(O)(Cc1cc2cnccc2[nH]1)C(C)(C)C (centres undefined)	Emax at 2 µM (Glucocorticoid receptor [6]): 10%; EC50 (Glucocorticoid receptor [8]): > 2000 nM
> 2000	> 2000	17	260	COc1ccc(F)cc1C(C)(C)CC(O)(Cc1cc2ccncc2[nH]1)C1CCC1 (centres undefined)	
> 2000	1800	6	8	COc1ccc(F)cc1C(C)(C)CC(O)(Cc1cc2cnccc2[nH]1)C1CC1 (centres undefined)	Emax at 2 µM (Glucocorticoid receptor [6]): 20%; EC50 (Glucocorticoid receptor [8]): 90 nM
780	720	5	35	Cc1ccc(F)cc1C(C)(C)CC(O)(Cc1cc2cnccc2[nH]1)C(C)(C)C (racemic)	Emax at 2 µM (Glucocorticoid receptor [6]): 1%; Stability [7]: Stable; Stability [9]: Stable; EC50 (Glucocorticoid receptor [8]): > 2000 nM
				C[C@]12C=CC(=O)C=C1CC[C@@H]1[C@@H]2[C@@H](O)C[C@@]2(C)[C@H]1CC[C@]2(O)C(=O)CO [PREDNISOLONE]	Activity (Mus musculus [10]): -80%; inhibition in vivo at 3 mg/kg (Mus musculus [11]): 87%; Activity (Mus musculus [12]): -42%; Activity (Mus musculus [13]): 53%; Activity (Mus musculus [14]): 13%; Activity (Mus musculus [15]): 55%; Activity (Mus musculus [16]): -11%; Activity (Mus musculus [17]): 27%; Activity (Mus musculus [18]): 16%; Activity (Mus musculus [19]): 187%; Activity (Mus musculus [20]): 37%
> 2000	1300	1300		Cc1ccc(F)cc1C(C)(C)C[C@](O)(Cc1cc2cnccc2[nH]1)C(C)(C)C	
> 2000	1100	26	> 2000	COc1ccc(F)cc1C(C)(C)CC(O)(Cc1cc2ccncc2[nH]1)C1CCCC1 (single isomer, unassigned)	
> 2000	> 2000	15	47	COc1ccc(F)cc1C(C)(C)CC(O)(Cc1cc2ccncc2[nH]1)C1CC1 (centres undefined)	Ratio IC50 (Homo sapiens [4]): > 100; Ratio IC50 (Homo sapiens [5]): > 100
